Results on 17 molecules are retold here after publication PMC12541710, “Design, synthesis, and anticancer evaluation of novel pyrazole–thiophene hybrid derivatives as multitarget inhibitors of wild EGFR, mutant (T790M) EGFR, and VEGFR-2” (RSC Advances, 2025).

Read-outs that look alike come from different tables or passages of the source.

In data set [1] the test system is HepG2. The data set is described as follows: MTT cytotoxicity assay, HepG2. To be noted: Homo sapiens, HepG2, 24 h, read-out: In vitro Cytotoxicity (IC50, μM) HepG2. The text has this: (§1) Two human cancer cell lines, HepG2 (human hepatocellular carcinoma) and MCF-7 (human breast adenocarcinoma), were used to test the produced compounds' cytotoxic activities. […] HepG2 cells, a hepatocellular carcinoma model, are widely used for studying VEGF/VEGFR-2-mediated angiogenesis and tumor progression.[76,77] Thus, these models provided a relevant system for assessing the potential EGFR/VEGFR inhibitory effects of our synthesized compounds. Accordingly, provide complementary systems for assessing the multitarget inhibitory potential of the synthesized pyrazole–thiophene hybrids against EGFR- and VEGFR-2-mediated oncogenic pathways. […] The cytotoxic activity of the synthesized pyrazole–thiophene derivatives was initially evaluated against two standard human cancer cell lines: MCF-7 and HepG2, which are widely used in cytotoxicity screening using the 3-(4,5-dimethylthiazol-2-yl)-2,5-diphenyltetrazolium bromide (MTT) assay (SI data, S1).[81–84] […]
(§2) S1. Analysis of Cytotoxic Inhibitory Concentration 50 (IC 50) with respect to HepG2 and MCF-7 The cytotoxic activity of the synthesized compounds was evaluated against MCF-7 and HepG2 cell lines using the 3-(4,5-dimethylthiazol-2-yl)-2,5-diphenyltetrazolium bromide (MTT) assay 2-5.
(§3) 100 µg/mL streptomycin, then seeded in 96 -well plates (1 × 10⁴ cells/well) and incubated at 37 °C with 5% CO₂ for 48 h. Test compounds, prepared by serial dilutio n, were added for 24 h, after which 20 µL of MTT solution (5 mg/mL) was introduced and incubated for 4 h. Formazan crystals were dissolved […]
(§4) Cell viability was ca lculated relative to untreated controls, and IC₅₀ values were obtained from dose – response curves by nonlinear regression. […]

For data set [2], the system named is MCF-7. The data set is described as follows: MTT cytotoxicity assay, MCF-7. To be noted: Homo sapiens, MCF7, 24 h, read-out: In vitro Cytotoxicity (IC50, μM) MCF-7.
Source text: as §1, §2, §3, §4
Background: Tetrazolium dyes change colour on reduction, which living cells bring about.

Data set [3] addresses T1, EGFR mutant (T790M) (Homo sapiens, UniProt P00533, T790M).
T1 construct: purchased #40323
In words: EGFR enzyme inhibition assay (mutant T790M), Kinase-Glo kit. The class given is biochemical. The protocol:
(§5) Supporting Information (SI)
(§6) Formazan crystals were dissolved
(§7) response curves by nonlinear regression.
(§8) performed in 96 -well plates containing purified recombinant EGFR. Each we ll received 25 µL of
(§9) control). […] The reaction was initiated
(§10) After incubation, 50 µL of
(§11) min. Luminescence was then recorded using a microplate ELISA reader. Erlotinib served as t he
(§12) incubated for 5 min at room temperature.

The target in data set [4] is T2, wild-type EGFR (Homo sapiens, UniProt P00533).
T2 construct: purchased #40321
T2 sequence (P00533 25-1210): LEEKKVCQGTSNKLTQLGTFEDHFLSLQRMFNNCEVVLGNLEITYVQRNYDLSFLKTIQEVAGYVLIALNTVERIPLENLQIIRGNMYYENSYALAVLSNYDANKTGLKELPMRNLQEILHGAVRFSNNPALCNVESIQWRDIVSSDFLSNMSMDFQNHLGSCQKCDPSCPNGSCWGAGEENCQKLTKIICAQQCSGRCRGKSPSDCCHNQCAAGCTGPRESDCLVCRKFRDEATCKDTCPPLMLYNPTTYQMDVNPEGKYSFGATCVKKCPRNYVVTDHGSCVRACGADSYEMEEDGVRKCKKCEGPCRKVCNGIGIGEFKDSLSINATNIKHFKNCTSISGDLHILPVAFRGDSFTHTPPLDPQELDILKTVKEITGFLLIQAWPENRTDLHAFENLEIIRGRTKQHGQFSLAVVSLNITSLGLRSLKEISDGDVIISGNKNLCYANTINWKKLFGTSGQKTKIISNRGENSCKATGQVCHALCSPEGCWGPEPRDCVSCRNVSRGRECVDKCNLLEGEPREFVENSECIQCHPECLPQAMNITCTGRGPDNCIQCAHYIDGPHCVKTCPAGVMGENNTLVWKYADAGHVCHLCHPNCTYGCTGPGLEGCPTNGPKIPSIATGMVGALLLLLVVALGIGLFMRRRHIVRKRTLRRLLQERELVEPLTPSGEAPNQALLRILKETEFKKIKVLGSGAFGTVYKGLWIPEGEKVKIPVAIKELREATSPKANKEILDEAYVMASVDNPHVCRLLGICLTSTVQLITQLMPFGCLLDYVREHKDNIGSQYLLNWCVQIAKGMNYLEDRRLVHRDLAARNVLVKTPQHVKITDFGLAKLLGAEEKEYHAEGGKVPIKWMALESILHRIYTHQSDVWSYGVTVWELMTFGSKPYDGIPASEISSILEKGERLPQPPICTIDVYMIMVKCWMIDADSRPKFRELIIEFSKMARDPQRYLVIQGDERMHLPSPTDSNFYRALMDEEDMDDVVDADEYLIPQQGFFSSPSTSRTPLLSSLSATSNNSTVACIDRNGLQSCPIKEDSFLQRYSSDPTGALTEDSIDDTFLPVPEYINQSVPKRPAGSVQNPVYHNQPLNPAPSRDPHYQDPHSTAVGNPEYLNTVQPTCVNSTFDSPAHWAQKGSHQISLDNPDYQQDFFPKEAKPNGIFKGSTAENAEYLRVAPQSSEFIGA
The data set is described as follows: EGFR enzyme inhibition assay (wild type), Kinase-Glo kit. The class given is biochemical. The method, then: as §5, §6, §7, §8, §9, §10, §11, §12
(In general: In Kinase-Glo more light means more ATP remaining.)

The target in data set [5] is T3, VEGFR-2 (Homo sapiens, UniProt P35968).
T3 construct: purchased Cell Signaling Technology #7788
T3 sequence (P35968 789-1356 limits assumed): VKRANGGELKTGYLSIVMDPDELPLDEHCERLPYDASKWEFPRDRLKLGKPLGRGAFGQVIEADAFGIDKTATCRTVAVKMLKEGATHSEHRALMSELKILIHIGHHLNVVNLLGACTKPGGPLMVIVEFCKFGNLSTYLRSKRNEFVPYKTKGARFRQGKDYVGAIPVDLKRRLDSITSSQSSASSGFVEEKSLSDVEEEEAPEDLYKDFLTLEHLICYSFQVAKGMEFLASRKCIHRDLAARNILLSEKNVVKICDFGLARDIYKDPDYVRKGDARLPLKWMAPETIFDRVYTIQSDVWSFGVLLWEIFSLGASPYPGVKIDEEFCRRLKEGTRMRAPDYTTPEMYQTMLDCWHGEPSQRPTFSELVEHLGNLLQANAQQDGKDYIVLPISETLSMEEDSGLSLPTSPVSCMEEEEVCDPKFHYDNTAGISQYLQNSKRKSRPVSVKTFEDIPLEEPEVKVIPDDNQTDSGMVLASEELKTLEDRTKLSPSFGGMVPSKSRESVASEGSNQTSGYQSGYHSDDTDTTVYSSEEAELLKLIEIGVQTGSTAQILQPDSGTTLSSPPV
In words: VEGFR-2 enzyme inhibition assay (HTScan Tyrosine Kinase Assay). The class given is biochemical.

In data set [6] the test system is MCF-7 cells. The data set is described as follows: Cell cycle analysis by PI flow cytometry. To be noted: MCF-7, 10 µM, 48 h. It is filed as cell-based, human. The method, then: S3. Assessment of the Impact of Compound 14 on Cell Cycle Progression and Apoptosis in MCF - […]
MCF-7 breast cancer cells were seeded under standard culture conditions and treated with 10 µM of compound 14 for 48 h. After treatment, cells were harvested by trypsinization, washed with PBS, and fixed in ice-cold 66% ethanol at 4 °C for at least 2 h. Prior to analysis, cells were washed again with PBS and stained using the Propidium Iodide Flow Cytometry Kit ( ab139418, Abcam, UK) according to the manufacturer’s instructions. Staining was carried out with PI and RNase at 37 °C in the dark for 30 min. Cell cycle distribution (G0/G1, S, and G2/M phases) was then determined by measuring PI fluorescence intensity in the FL2 channel 8. […]
Background: A flow cytometer gives signals particle by particle.

For data set [7], the system named is MCF-7 cells. The data set is described as follows: Annexin V-FITC/PI apoptosis and necrosis assay. The class given is cell-based, human. Conditions: MCF-7, 10 µM, 48 h. The method, then: Flow cytometric assay and the pro-apoptotic activity of compound 14 were assessed using the Annexin V-FITC Apoptosis Detection Kit (BioVision, USA; Cat. No. K101-25). The assay of compound 14 was performed in accordance with the reported procedure,[87,88] (SI data, S3). […]
The pro-apoptotic activity of compound 14 was assessed using the Annexin V -FITC Apoptosis Detection Kit (BioVision, USA; Cat. No. K101 -25) according to the manufacturer’s instructions.
MCF-7 cells (1–5 × 10⁵) were seeded and treated with 10 µM of 14 for 48 h. After treatment, both floating and adherent cells were collected by gentle trypsinization, washed with serum -containing medium, and resuspended in 500 µL of 1× Binding Buffer. Each sample was stained with 5 µL Annexin V-FITC and 5 µL propidium iodide (50 µg/mL) for 5 min at room temperature in the dark, then analyzed by flow cytometry. […]

Data set [8] has as its system MCF-7. Conditions: reference drug value; read-out: In vitro Cytotoxicity (IC50, μM) MCF-7; cited from earlier work.
Data set [9] relates to HepG2. To be noted: reference drug value; read-out: In vitro Cytotoxicity (IC50, μM) HepG2; cited from earlier work.
The test system of data set [10] is human pancreatic tumor (AsPC-1) and human glioblastoma (U251). The arrangement: method as in PMID 26492233. Conditions: read-out: IC50 against AsPC-1 and U251; cited from earlier work.

T1 sequence (P00533 25-1210 T790M): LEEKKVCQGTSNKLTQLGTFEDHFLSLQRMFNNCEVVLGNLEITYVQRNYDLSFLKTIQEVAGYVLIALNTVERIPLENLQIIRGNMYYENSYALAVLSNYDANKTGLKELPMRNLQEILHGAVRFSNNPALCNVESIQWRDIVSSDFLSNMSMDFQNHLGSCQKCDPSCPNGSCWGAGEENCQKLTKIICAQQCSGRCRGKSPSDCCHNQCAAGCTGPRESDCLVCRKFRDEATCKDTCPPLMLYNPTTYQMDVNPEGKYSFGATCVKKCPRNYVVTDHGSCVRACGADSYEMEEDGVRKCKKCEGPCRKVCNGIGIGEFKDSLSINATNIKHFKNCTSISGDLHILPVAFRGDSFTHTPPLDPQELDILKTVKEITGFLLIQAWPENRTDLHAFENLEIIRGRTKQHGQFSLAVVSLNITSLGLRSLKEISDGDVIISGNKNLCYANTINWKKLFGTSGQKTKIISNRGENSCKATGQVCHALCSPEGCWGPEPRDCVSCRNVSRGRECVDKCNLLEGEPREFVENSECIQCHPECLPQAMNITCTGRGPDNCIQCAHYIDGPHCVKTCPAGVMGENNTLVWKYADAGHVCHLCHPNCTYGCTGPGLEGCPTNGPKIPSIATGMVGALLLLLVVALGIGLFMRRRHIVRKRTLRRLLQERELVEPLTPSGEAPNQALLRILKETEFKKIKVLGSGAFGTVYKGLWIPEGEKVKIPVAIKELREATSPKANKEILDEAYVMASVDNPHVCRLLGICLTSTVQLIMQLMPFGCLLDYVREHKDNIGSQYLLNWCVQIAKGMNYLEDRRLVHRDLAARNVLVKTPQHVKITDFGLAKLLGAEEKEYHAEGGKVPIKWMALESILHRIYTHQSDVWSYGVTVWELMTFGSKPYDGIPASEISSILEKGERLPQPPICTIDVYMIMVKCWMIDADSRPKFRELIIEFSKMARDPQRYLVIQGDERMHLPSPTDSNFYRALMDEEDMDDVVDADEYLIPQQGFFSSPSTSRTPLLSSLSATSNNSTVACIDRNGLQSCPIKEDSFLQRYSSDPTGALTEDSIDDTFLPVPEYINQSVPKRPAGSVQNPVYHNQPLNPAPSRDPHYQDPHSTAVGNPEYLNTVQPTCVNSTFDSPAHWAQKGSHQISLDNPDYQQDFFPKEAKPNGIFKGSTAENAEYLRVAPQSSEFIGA

Usually IC50 stands for the concentration at which inhibition is half-maximal. Take `O=C(C=Cc1cccs1)c1ccc([N+](=O)[O-])cc1` [Compound 1, 1-(4-nitrophenyl)-3-(thiophen-2-yl)prop-2-en-1-one]: the IC50 in data set [1] is 90.5 µM; in data set [2] it was over 100 µM.
For `O=[N+]([O-])c1ccc(C2=NNC(c3cccs3)C2)cc1` (stereo not drawn) [Compound 2, 3-(4-nitrophenyl)-5-(thiophen-2-yl)-4,5-dihydro-1H-pyrazole], the concentration for half-maximal inhibition (IC50) is 8.86 µM in data set [1]; 6.57 µM in [2]; 65.1 µM in [3]; 59.5 µM in data set [4]; 889 µM in data set [5].
Consider `CC(=O)N1N=C(c2ccc([N+](=O)[O-])cc2)CC1c1cccs1` (stereo not drawn) [Compound 3, 1-(3-(4-nitrophenyl)-5-(thiophen-2-yl)-4,5-dihydro-1H-pyrazol-1-yl) ethan-1-one], for which the IC50 in data set [1] turned out to be 53.2 µM; in [2], 43.6 µM.
As for `O=CN1N=C(c2ccc([N+](=O)[O-])cc2)CC1c1cccs1` (stereo not drawn) [Compound 4, 3-(4-nitrophenyl)-5-(thiophen-2-yl)-4,5-dihydro-1H-pyrazole-1-carbaldehyde], the half-maximal inhibitory concentration (IC50) in [1] is 84 µM; in [2], 92.1 µM.
Regarding `O=[N+]([O-])c1ccc(C2=Nc3ccccc3NC(c3cccs3)C2)cc1` (stereo not drawn) [Compound 5, 4-(4-nitrophenyl)-2-(thiophen-2-yl)-2,3-dihydro-1H-benzo[b][1,4] diazepine], the IC50 was found to be 62.6 µM in data set [1] and 75.5 µM in [2].
For the molecule `N#Cc1c(-c2cccs2)cc(-c2ccc([N+](=O)[O-])cc2)[nH]c1=O` [Compound 6, 6-(4-nitrophenyl)-2-oxo-4-(thiophen-2-yl)-1,2-dihydropyridine-3-carbonitrile], the IC50 came to 28.9 µM in data set [1] and 23.3 µM in data set [2].
Regarding `O=C(CCl)N1N=C(c2ccc([N+](=O)[O-])cc2)CC1c1cccs1` (stereo not drawn) [Compound 7, 2-chloro-1-(3-(4-nitrophenyl)-5-(thiophen-2-yl)-4,5-dihydro-1H-pyrazol-1-yl)ethan-1-one], the IC50 in data set [1] was 78.1 µM; in data set [2], 75 µM.
Take `O=C(O)c1ccccc1C(=O)N1N=C(c2ccc([N+](=O)[O-])cc2)CC1c1cccs1` (stereo not drawn) [Compound 8, 2-(3-(4-nitrophenyl)-5-(thiophen-2-yl)-4,5-dihydro-1H-pyrazole-1-carbonyl)benzoic acid]: the IC50 was 13.5 µM in data set [1]; 8.08 µM in data set [2]; 121 µM in [3]; 66.6 µM in data set [4]; 85.1 µM in data set [5].
Take `O=C(O)CCC(=O)N1N=C(c2ccc([N+](=O)[O-])cc2)CC1c1cccs1` (stereo not drawn) [Compound 9, 4-(3-(4-nitrophenyl)-5-(thiophen-2-yl)-4,5-dihydro-1H-pyrazol-1-yl)-4-oxobutanoic acid]: the IC50 came to 22.6 µM in data set [1] and 17.8 µM in [2].
In the case of `O=C(O)C=CC(=O)N1N=C(c2ccc([N+](=O)[O-])cc2)CC1c1cccs1` (stereo not drawn) [Compound 10, 4-(3-(4-nitrophenyl)-5-(thiophen-2-yl)-4,5-dihydro-1H-pyrazol-1-yl)-4-oxobut-2-enoic acid], the half-maximal inhibitory concentration (IC50) in data set [1] turned out to be 36.4 µM; in data set [2], 32.6 µM.
Taken in the same sequence, the figures for `O=[N+]([O-])c1ccc(C2=NN(CN3N=C(c4ccc([N+](=O)[O-])cc4)CC3c3cccs3)C(c3cccs3)C2)cc1` (stereo not drawn) [Compound 11, bis(3-(4-nitrophenyl)-5-(thiophen-2-yl)-4,5-dihydro-1H-pyrazol-1-yl)methane] were 74.2 µM and 87.4 µM.
With `COC(=O)/C=C(\C(=O)OC)N1N=C(c2ccc([N+](=O)[O-])cc2)CC1c1cccs1` (stereo not drawn) [Compound 12, dimethyl 2-(3-(4-nitrophenyl)-5-(thiophen-2-yl)-4,5-dihydro-1H-pyrazol-1-yl)maleate], the values for the IC50 in data set [1] and in data set [2] were 59.3 µM and 51.7 µM, respectively.
For `O=C(O)n1nc(-c2ccc([N+](=O)[O-])cc2)cc1-c1cccs1` [Compound 13, 3-(4-nitrophenyl)-5-(thiophen-2-yl)-1H-pyrazole-1-carboxylic acid], the values for the half-inhibitory concentration (IC50) in data set [1] and in data set [2] were 41.4 µM and 37.1 µM, respectively.
As for `CC(=O)C1C(c2ccc([N+](=O)[O-])cc2)=NN(C=O)C1c1cccs1` (stereo not drawn) [Compound 14, 4-Acetyl-3-(4-nitrophenyl)-5-(thiophen-2-yl)-4,5-dihydro-1H-pyrazole-1-carbaldehyde], the “Cell cycle analysis Comment” value in [6] is given as “Cell cycle arrest at G1phase”. For the same molecule, the “Cell cycle analysis %G2/M” value in data set [6] (control 16.74%) is listed as 6.62%. Further, the “Cell cycle analysis %S” value in [6] (control 27.95%) was 19.22%. Moreover, the “Cell cycle analysis %G0-G1” value in [6] (control 55.31%) was 74.16%. Also, in data set [7] (control 0.14%), the “Apoptosis Late” value was 7.1%. In addition, the “Apoptosis Early” value in [7] (control 0.69%) was 15.02%. Moreover, the Necrosis in data set [7] (control 2.36%) is on record as 4.2%. For the same molecule, the 50% inhibitory concentration (IC50) in [1] is 19.6 µM; in data set [2], 12.9 µM; in [3], 48.3 µM; in data set [4], 47.6 µM; in data set [5], 327 µM.
In the case of `COc1cccc2c1C(=O)c1c(O)c3c(c(O)c1C2=O)C[C@@](O)(C(=O)CO)C[C@@H]3O[C@H]1C[C@H](N)[C@H](O)[C@H](C)O1` [Doxorubicin, doxorubicin, reference compound], in data set [1], the IC50 amounted to 4.5 µM.
In the case of `C#Cc1cccc(Nc2ncnc3cc(OCCOC)c(OCCOC)cc23)c1` [Erlotinib, erlotinib], the IC50 was 8.2 µM in data set [8] and 7.73 µM in [9].
Consider `Cc1ccc(-c2nnc(SCC(=O)N3N=C(c4cccs4)CC3c3ccc(Cl)cc3)o2)cc1` (stereo not drawn) [compound II], for which the IC50 in data set [10] is 12 to 17 µM.
